# Earlier results as cited in US20200352905A1, “6-(2,4-DICHLOROPHENYL)-5-[4-[(3S)-1-(3-FLUOROPROPYL)PYRROLIDIN-3-YL]OXYPHENYL]-8,9-DIHYDRO-7H-BENZO[7]ANNULENE-2-CARBOXYLIC ACID FOR USE IN METASTATIC OR ADVANCED BREAST CANCER PATIENTS” (SANOFI, priority 2019, published 2020).
# Where two headings read alike, the source gives them in different places.
# How the values were obtained:
# CYP3A [1] = settings: cited from earlier work
# CYP3A [2] = settings: cited from earlier work; remark: listed apart in the source
# advanced breast cancer = settings: prior CDK4/6, mTOR, fulvestrant not allowed, cited from earlier work
# CYP2C8 = settings: cited from earlier work
# [3] = victim Verapamil, 100 mg QD 21 days
# [4] = strong CYP3A inhibitors, victim midazolam (oral)
# [5] = moderate CYP3A inhibitors, victim midazolam (oral)
# [6] = EFECT trial 2003-2005, fulvestrant single agent arm, n=270, setting 2L+
# [7] = PALOMA-3 trial 2013-2014, fulvestrant single agent arm, n=138, setting 2L+
# [8] = SANDPIPER trial 2015-2017, fulvestrant single agent arm, n=134, setting 2L+
# [9] = SoFEA trial 2004-2010, fulvestrant single agent arm, n=178, setting 2L+
# [10] = victim Midazolam, 140 mg QD (10 days)
# [11] = victim Sildenafil, 62.5-125 mg BID 8 weeks
# [12] = victim Triazolam, 200-400 mg QD 28 days
# [13] = victim Midazolam, 1000 mg QD (14 days)
# [14] = victim Nifedipine, 500 mg 4 times daily 5 days
# [15] = victim Midazolam, 1000 mg BID (14 days)
# [16] = victim Indinavir, 500 mg TID 14 days
structure (smiles),measurement,setting,value
CCC1(c2ccccc2)C(=O)NC(=O)NC1=O [Phenobarbital],% of AUC decrease,CYP3A [1]; [3],76.6%
same,% oral CL increase,CYP3A [1]; [3],400.9%
CN[C@@H](C)C(=O)N[C@H](C(=O)N1CCC[C@H]1c1nc(C(=O)c2ccc(F)cc2)cs1)C1CCCCC1 [LCL 161],AUC Ratio,CYP3A [2]; [4],8.80
CCC1C(C)=NN=C(c2ccc(OC)c(OC)c2)c2cc(OC)c(OC)cc21 (stereo not drawn) [tofisopam],AUC Ratio,CYP3A [2]; [5],2.36
CC[C@@H]([C@H](C)O)n1ncn(-c2ccc(N3CCN(c4ccc(OC[C@@H]5CO[C@@](Cn6cncn6)(c6ccc(F)cc6F)C5)cc4)CC3)cc2)c1=O [Posaconazole],AUC Ratio,CYP3A [2]; [4],6.23
CCCCc1oc2ccc(NS(C)(=O)=O)cc2c1C(=O)c1ccc(OCCCN(CCCC)CCCC)cc1 [Dronedarone],AUC Ratio,"CYP3A [2]; moderate CYP3A inhibitors, victim simvastatin",3.66
O=C1NC(=O)C(c2ccccc2)(c2ccccc2)N1 [Phenytoin],% of AUC decrease,"CYP3A [1]; victim Nisoldipine, 200-450 mg/day (chronic treatment)",89.5%
CC[C@H]1OC(=O)[C@H](C)C(=O)[C@H](C)[C@@H](O[C@@H]2O[C@H](C)C[C@H](N(C)C)[C@H]2O)[C@](C)(OC)C[C@@H](C)C(=O)[C@H](C)[C@H]2N(CCCCn3cnc(-c4cccnc4)c3)C(=O)O[C@]12C [Telithromycin],AUC Ratio,CYP3A [2]; [4],6.2
C[C@]12CC[C@@H]3c4ccc(O)cc4C[C@@H](CCCCCCCCC[S+]([O-])CCCC(F)(F)C(F)(F)F)[C@H]3[C@@H]1CC[C@@H]2O (stereo partly drawn) [fulvestrant],CBR,advanced breast cancer; [6],32.2%
same,ORR,advanced breast cancer; [6],7.4%
same,CBR,advanced breast cancer; [7],36%
same,ORR,advanced breast cancer; [7],11%
same,CBR,advanced breast cancer; [8],37.3%
same,ORR,advanced breast cancer; [8],11.9%
same,CBR,advanced breast cancer; [9],31%
same,ORR,advanced breast cancer; [9],8%
Cc1nc2c([nH]1)-c1ccccc1N(C(=O)c1ccc(NC(=O)c3ccccc3-c3ccccc3)cc1)CC2 [Conivaptan],AUC Ratio,CYP3A [2]; [4],5.76
Clc1ccc(C(c2ccccc2Cl)C(Cl)Cl)cc1 (stereo not drawn) [Mitotane],% of AUC decrease,"CYP3A [1]; victim Midazolam, Maximum of 3.5 g TID (chronic therapy)",94.5%
CC(C)[C@H](O)C(=O)N[C@@H](C)C(=O)N[C@@H]1C(=O)N(C)CCc2ccccc21 [Semagacestat],% of AUC decrease,CYP3A [1]; [10],76.4%
same,% oral CL increase,CYP3A [1]; [10],324.6%
C[C@@H](c1nc(-c2ccc(C#N)cc2)cs1)[C@](O)(Cn1cncn1)c1cc(F)ccc1F [isavuconazole],AUC Ratio,CYP3A [2]; [5],2.03
CNC(=O)c1ccc(N2C(=S)N(c3ccc(C#N)c(C(F)(F)F)c3)C(=O)C2(C)C)cc1F [Enzalutamide],% of AUC decrease,"CYP3A [1]; victim Midazolam, 160 mg QD (85 ± 3 days)",85.9%
Cc1cn(-c2cc(NC(=O)c3ccc(C)c(Nc4nccc(-c5cccnc5)n4)c3)cc(C(F)(F)F)c2)cn1 [nilotinib],AUC Ratio,CYP3A [2]; [5],2.40
COc1ccccc1Oc1c(NS(=O)(=O)c2ccc(C(C)(C)C)cc2)nc(-c2ncccn2)nc1OCCO [Bosentan],% of AUC decrease,CYP3A [1]; [11],69%
same,% oral CL increase,CYP3A [1]; [11],239.8%
CC(C)(C)NC(=O)[C@@H]1C[C@@H]2CCCC[C@@H]2CN1C[C@@H](O)[C@H](Cc1ccccc1)NC(=O)[C@H](CC(N)=O)NC(=O)c1ccc2ccccc2n1 [Saquinavir],AUC Ratio,CYP3A [2]; [4],5.18
CC[C@H]1OC(=O)[C@H](C)[C@@H](O[C@H]2C[C@@](C)(OC)[C@@H](O)[C@H](C)O2)[C@H](C)[C@@H](O[C@@H]2O[C@H](C)C[C@H](N(C)C)[C@H]2O)[C@](C)(OC)C[C@@H](C)C(=O)[C@H](C)[C@@H](O)[C@]1(C)O [Clarithromycin],AUC Ratio,CYP3A [2]; [4],8.39
NC(=O)C[S+]([O-])C(c1ccccc1)c1ccccc1 (stereo not drawn) [Modafinil],% of AUC decrease,CYP3A [1]; [12],57.6%
same,% oral CL increase,CYP3A [1]; [12],35.7%
CC(C)CN(C[C@@H](O)[C@H](Cc1ccccc1)NC(=O)O[C@H]1CCOC1)S(=O)(=O)c1ccc(N)cc1 [amprenavir],AUC Ratio,CYP3A [2]; in vivo,2.93
CCc1nn(CCCN2CCN(c3cccc(Cl)c3)CC2)c(=O)n1CCOc1ccccc1 [Nefazodone],AUC Ratio,CYP3A [2]; [4],5.44
N#Cc1ccnc(N2C(=O)CC[C@H]2C(=O)N(c2cncc(F)c2)[C@H](C(=O)NC2CC(F)(F)C2)c2ccccc2Cl)c1 [ivosidenib],Max % of AUC decrease or CL increase,"CYP2C8; substrate repaglinide, 1200 mg QD (19 days), PBPK",59.0 (PBPK) %
O=c1c(-c2ccc(O)cc2)coc2cc(O)cc(O)c12 [Genistein],% of AUC decrease,CYP3A [1]; [13],13.7%
same,% oral CL increase,CYP3A [1]; [13],136.9%
CCC[C@H](NC(=O)[C@@H]1[C@H]2CCC[C@H]2CN1C(=O)[C@@H](NC(=O)[C@@H](NC(=O)c1cnccn1)C1CCCCC1)C(C)(C)C)C(=O)C(=O)NC1CC1 [Telaprevir],AUC Ratio,CYP3A [2]; [4],13.5
Cc1ccccc1-c1cc(N2CCN(C)CC2)ncc1N(C)C(=O)C(C)(C)c1cc(C(F)(F)F)cc(C(F)(F)F)c1 [netupitant],AUC Ratio,CYP3A [2]; [5],2.44
COCCc1ccc(Cl)c(CN(C(=O)[C@H]2CNCC[C@@H]2c2ccc(OCCOc3c(Cl)cc(C)cc3Cl)nc2)C2CC2)c1 [ACT-178882],AUC Ratio,CYP3A [2]; [5],2.19
CC(=O)N1CCN([C@H]2CCN(C(=O)N(C)[C@H](C)c3cc(C(F)(F)F)cc(C(F)(F)F)c3)[C@@H](c3ccc(F)cc3C)C2)CC1 [casopitant],AUC Ratio,CYP3A [2]; [5],3.13
C[C@@H](O[C@H]1OCCN(Cc2n[nH]c(=O)[nH]2)[C@H]1c1ccc(F)cc1)c1cc(C(F)(F)F)cc(C(F)(F)F)c1 [aprepitant],AUC Ratio,CYP3A [2]; [5],3.29
CO[C@H]1/C=C/O[C@@]2(C)Oc3c(C)c(O)c4c(c3C2=O)C2=NC3(CCN(CC(C)C)CC3)NC2=C(NC(=O)/C(C)=C\C=C\[C@H](C)[C@H](O)[C@@H](C)[C@@H](O)[C@@H](C)[C@H](OC(C)=O)[C@@H]1C)C4=O [Rifabutin],% oral CL increase,"CYP3A [1]; victim Delavirdine, 300 mg QD 14 days",458.0%
CC(C)c1cc(C(C)C)c(CC(=O)NS(=O)(=O)Oc2c(C(C)C)cccc2C(C)C)c(C(C)C)c1 [Avasimibe],% of AUC decrease,"CYP3A [1]; victim Midazolam, 750 mg/day (7 days)",93.5%
Cc1c(O)cccc1C(=O)N[C@@H](CSc1ccccc1)[C@H](O)CN1C[C@H]2CCCC[C@H]2C[C@H]1C(=O)NC(C)(C)C [Nelfinavir],AUC Ratio,CYP3A [2]; [4],5.29
CC(=O)N1CCN(c2ccc(OCC3COC(Cn4ccnc4)(c4ccc(Cl)cc4Cl)O3)cc2)CC1 (stereo not drawn) [Ketoconazole],AUC Ratio,"CYP3A [2]; in vivo, po",15.90
OC(Cn1cncn1)(Cn1cncn1)c1ccc(F)cc1F [Fluconazole],AUC Ratio,CYP3A [2]; [5],4.93
CCOc1ccc2ccccc2c1C(=O)N[C@@H]1C(=O)N2[C@@H]1SC(C)(C)[C@@H]2C(=O)O [Naficillin],% of AUC decrease,CYP3A [1]; [14],62.6%
same,% oral CL increase,CYP3A [1]; [14],145.1%
Cc1cc(C#N)cc(C)c1Oc1nc(Nc2ccc(C#N)cc2)nc(N)c1Br [Etravirine],% of AUC decrease,"CYP3A [1]; victim Sildenafil, 800 mg BID 13.5 days",56.7%
CCc1nn(CCO)c(CC)c1Oc1cc(C#N)cc(C#N)c1 [Lersivirine],% of AUC decrease,CYP3A [1]; [15],51.4%
same,% oral CL increase,CYP3A [1]; [15],105.5%
CC(C)(C)NC(=O)N[C@H](C(=O)N1C[C@H]2[C@@H]([C@H]1C(=O)NC(CC1CCC1)C(=O)C(N)=O)C2(C)C)C(C)(C)C (stereo partly drawn) [Boceprevir],AUC Ratio,CYP3A [2]; [4],5.05
O=C1Nc2ccc(Cl)cc2[C@@](C#CC2CC2)(C(F)(F)F)O1 [Efavirenz],% of AUC decrease,"CYP3A [1]; victim Simvastatin acid, 600 mg QD 28 days",60.4%
CO[C@H]1/C=C/O[C@@]2(C)Oc3c(C)c(O)c4c(O)c(c(/C=N/N5CCN(C)CC5)c(O)c4c3C2=O)NC(=O)/C(C)=C\C=C\[C@H](C)[C@H](O)[C@@H](C)[C@@H](O)[C@@H](C)[C@H](OC(C)=O)[C@@H]1C [Rifampin],Max % of AUC decrease or CL increase,"CYP2C8; substrate pioglitazone, 600 mg QD (6 days)",53.8%
same,Max % of AUC decrease or CL increase,"CYP2C8; substrate repaglinide, 600 mg QD (7 days)",79.6%
same,Max % of AUC decrease or CL increase,"CYP2C8; substrate rosiglitazone, 600 mg QD (6 days)",66.4%
COCC(=O)O[C@]1(CCN(C)CCCc2nc3ccccc3[nH]2)CCc2cc(F)ccc2[C@@H]1C(C)C [Mibefradil],AUC Ratio,CYP3A [2]; [4],8.86
COc1ccc2c(c1)N(C(=O)OC(C)C)[C@@H](CSC)C(=S)N2 [Talviraline],% of AUC decrease,CYP3A [1]; [16],61.7%
same,% oral CL increase,CYP3A [1]; [16],181.2%
CCC(C)n1ncn(-c2ccc(N3CCN(c4ccc(OCC5COC(Cn6cncn6)(c6ccc(Cl)cc6Cl)O5)cc4)CC3)cc2)c1=O (stereo not drawn) [Itraconazole],AUC Ratio,CYP3A [2]; [4],10.80
COC(=O)N[C@H](C(=O)N[C@@H](Cc1ccccc1)[C@@H](O)CN(Cc1ccc(-c2ccccn2)cc1)NC(=O)[C@@H](NC(=O)OC)C(C)(C)C)C(C)(C)C [atazanavir],AUC Ratio,"CYP3A [2]; moderate CYP3A inhibitors, victim maraviroc",3.57
CC[C@H](Nc1ncnc2[nH]cnc12)c1nc2cccc(F)c2c(=O)n1-c1ccccc1 [Idelalisib],AUC Ratio,CYP3A [2]; [4],5.15
